ChEMBL document CHEMBL3272344, “Synthesis of 5-substituted aminomethyluracils via the Mannich reaction” (J Med Chem, 1976)
Activity calls are given as the source filed them. The rule behind the calls is not given here.

What was measured:
Mus musculus [1] = assay: Toxicity in mouse L1210 cells allografted mouse up to 400 mg/kg; type: organism-based; design: dose 400 mg/kg; conditions: in vivo
Mus musculus [2] = assay: Toxicity in Plasmodium berghei infected mouse at 320 mg/kg; type: organism-based; design: dose 320 mg/kg; conditions: in vivo
L1210 = assay: Antitumor activity against mouse L1210 cells allografted in mouse up to 400 mg/kg; type: functional, organism-based; design: dose 400 mg/kg
Plasmodium gallinaceum [3] = assay: Antimalarial activity against Plasmodium gallinaceum B infected in chick at 160 mg/kg; type: functional, organism-based; design: dose 160 mg/kg
Plasmodium berghei [4] = assay: Antimalarial activity against Plasmodium berghei infected in mouse at 320 mg/kg; type: functional, organism-based; design: dose 320 mg/kg
Gallus gallus [5] = assay: Toxicity in Plasmodium gallinaceum B infected chick at 160 mg/kg; type: organism-based; design: dose 160 mg/kg; conditions: chicken, in vivo
Mus musculus [6] = assay: Toxicity in Plasmodium berghei infected mouse at 640 mg/kg; type: organism-based; design: dose 640 mg/kg; conditions: in vivo
Plasmodium berghei [7] = assay: Antimalarial activity against Plasmodium berghei infected in mouse at 640 mg/kg; type: functional, organism-based; design: dose 640 mg/kg
Gallus gallus [8] = assay: Toxicity in Plasmodium gallinaceum B infected chick at 120 mg/kg; type: organism-based; design: dose 120 mg/kg; conditions: chicken, in vivo
Plasmodium gallinaceum [9] = assay: Antimalarial activity against Plasmodium gallinaceum B infected in chick at 120 mg/kg; type: functional, organism-based; design: dose 120 mg/kg
Plasmodium gallinaceum [10] = assay: Antimalarial activity against Plasmodium gallinaceum B infected in chick at 100 mg/kg; type: functional, organism-based; design: dose 100 mg/kg
Gallus gallus [11] = assay: Toxicity in Plasmodium gallinaceum B infected chick at 100 mg/kg; type: organism-based; design: dose 100 mg/kg; conditions: chicken, in vivo

Compound | Activity (Mus musculus [1]) | Activity (Mus musculus [2]) | Activity (L1210) | Activity (Plasmodium berghei [4]) | Activity (Mus musculus [6]) | Activity (Plasmodium berghei [7]) | other results
O=c1[nH]cc(CNC2CCCCC2)c(=O)[nH]1 | Non-toxic | Non-toxic | inactive | inactive |  |  | Activity (Plasmodium gallinaceum [3]): inactive; Activity (Gallus gallus [5]): Non-toxic
CN(C)Cc1c[nH]c(=O)[nH]c1=O | Non-toxic |  | inactive |  |  |  | 
COc1ccc(NCc2c[nH]c(=O)[nH]c2=O)cc1 |  | Non-toxic |  | inactive |  |  | Activity (Plasmodium gallinaceum [3]): inactive; Activity (Gallus gallus [5]): Non-toxic
Cc1cccc(NCc2c[nH]c(=O)[nH]c2=O)c1 |  |  |  |  | Non-toxic | inactive | 
O=c1[nH]cc(CNc2ccccc2)c(=O)[nH]1 | Non-toxic |  | inactive |  | Non-toxic | inactive | Activity (Gallus gallus [8]): Non-toxic; Activity (Plasmodium gallinaceum [9]): inactive
CCCCNCc1c[nH]c(=O)[nH]c1=O |  |  |  |  | Non-toxic | inactive | Activity (Plasmodium gallinaceum [10]): inactive; Activity (Gallus gallus [11]): Non-toxic
O=c1[nH]cc(CNc2ccc(Cl)cc2)c(=O)[nH]1 |  | Non-toxic |  | inactive |  |  | 
